Test results: PubChem BioAssay (NCI)
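Step 1: Grow cells in 96-well plates. Step 2: Expose to compound for 48 hours at 5 concentrations. Step 3: Interpolate endpoints linearly; if unreached, use highest concentration. GI50 = concentration required for 50% inhibition of growth. TGI: total growth inhibition.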

Key:
Assay in all cases: NCI-60 cell line screen, 48 h
SN12C renal = test system: SN12C renal
KM12 colon = test system: KM12 colon
A549 NSCLC = test system: A549 NSCLC
UACC-257 melanoma = test system: UACC-257 melanoma
COLO 205 colon = test system: COLO 205 colon
MDA-MB-231 breast = test system: MDA-MB-231 breast
DU-145 prostate = test system: DU-145 prostate
HOP-92 NSCLC = test system: HOP-92 NSCLC
OVCAR-5 ovarian = test system: OVCAR-5 ovarian
K-562 leukemia = test system: K-562 leukemia

Structure (SMILES)	TGI (SN12C renal) [µM]	TGI (KM12 colon) [µM]	TGI (A549 NSCLC) [µM]	TGI (UACC-257 melanoma) [µM]	TGI (COLO 205 colon) [µM]	TGI (MDA-MB-231 breast) [µM]	TGI (DU-145 prostate) [µM]	TGI (HOP-92 NSCLC) [µM]	TGI (OVCAR-5 ovarian) [µM]	TGI (K-562 leukemia) [µM]	GI50 (SN12C renal) [µM]	GI50 (KM12 colon) [µM]	GI50 (A549 NSCLC) [µM]	GI50 (UACC-257 melanoma) [µM]	GI50 (COLO 205 colon) [µM]	GI50 (MDA-MB-231 breast) [µM]	GI50 (DU-145 prostate) [µM]	GI50 (HOP-92 NSCLC) [µM]	GI50 (OVCAR-5 ovarian) [µM]	GI50 (K-562 leukemia) [µM]
CCOC(=O)c1c(NCc2ccccc2)n(-c2ccccc2)c(=S)n(-c2ccccc2)c1=O	> 100	> 100	> 100	> 100	> 100	> 100	> 100	> 100	> 100	> 100										
C[C@H]1c2ccccc2CN1CCCOc1cc2c(cc1OCC1CC1)C1(CCCC1)C(N)=N2	9.18	7.69	7.61	2.13	1.68	5.21	8.63	3.54	10.1	2.46	2.59	2.03	1.94	0.999	0.842	1.44	2.66	0.633	3.6	0.871
Cc1nn(C(=O)c2ccncc2)c2c1C(c1cccc([N+](=O)[O-])c1)SC(N)=N2 (configuration not stated)	> 10	> 10	> 10	> 10	> 10	> 10	> 10	> 10	> 10	> 10										
COC(=O)/C(=C\c1ccco1)P(=O)(OC)OC	> 100	> 100	> 100	> 100	> 100	> 100	> 100	91.9	31.8	> 100										
CCN1C(=O)N(CC)C2C1NN=c1s/c(=C\c3ccc[nH]3)c(=O)n12 (configuration not stated)	> 100	> 45	> 100	> 100	1.82	> 100	> 100	> 100	> 100	> 100	0.991	0.286	0.523	> 100	0.349	3.01	0.496	13.4	1.59	0.245
O=C1CSC(c2ccccc2O)N1c1nnc(Cn2ccnc2)o1 (configuration not stated)	> 100	> 100	> 100	40.6	45.7	71.4	56.6	28.9	50.7	> 100	12.8	5.16	35.5	16	12.9	6.25	17.5	2.23	22.1	4.36
O=C1/C(=C/c2cccc(Br)c2)COc2ccc(O)c(O)c21	3.04	3.64	4.82	3.03	3	3.35	2.99	7.21	3.74	20.7	1.2	1.48	1.83	1.54	1.54	1.4	1.42	1.89	1.93	0.387
CC1(C)CC2=C(Sc3ccccc3N2)C(=O)C1C(=O)C(=O)Nc1cc(Cl)ccc1Cl (configuration not stated)	> 100	> 100	> 100	> 100	> 100	> 100	> 100	> 100	> 100	> 100										
O=c1cccc(C#CC#CCCCO)o1	16.7	9.26	> 58.8	15.8	7.87	4.82	5.86	6.13	11.6	> 100	5.21	0.834	17.8	3.48	2.94	1.99	2.37	2.47	5.57	4.08
CN1CCN(c2cc3nc4ccccc4n(-c4ccc(Cl)cc4)c-3cc2=N)CC1	41.4	43.8	60.8	39.2	> 100	49.9	> 100	94.8	60.8	23.5	19.4	16.6	24.1	19.2	> 100	10.6	37.8	28.7	24.1	0.356
COc1cc2c(cc1-c1coc3cc(OCC=C(C)C)ccc3c1=O)OCO2	> 100	52.4	> 100	> 100	> 100	65.6	> 100	> 100	> 100	> 100										
NC(=O)c1cccc(-c2cc(C(N)=O)ccc2Cl)c1	88.3	> 100	> 100	> 100	> 100	> 100	> 100	6.99	> 100	> 100	4.85	1.88	12.4	25.9	3.21	4.52	3.78		4.11	0.36
COc1cccc(C2C(C#N)=C(N)Oc3c2ccc2ccccc32)c1 (configuration not stated)	13.5	2.26	17.6	32.8	0.639	16.3	1.43	7.78	19.8	> 44	0.0406	< 0.0116	0.0232	0.901	0.132	0.0433	0.034	< 0.0271	0.0801	< 0.01
OCc1ccc(N2CCCC2)cc1Cl	> 100	> 100	> 100	1.28	5.11	> 100	> 100	24.2	0.498	> 100	47.6	> 100	23.2	0.338	2.01	> 79.4	34.4	2.22	0.148	8.18
O=S(=O)(NC1=NCCN1C(=S)SN1CCn2c1nsc2=S)c1cccc(OC(F)(F)F)c1	26.7	24.5	44.8	38.1	> 100	35.4	29.6	20.4	30	> 100	11.3	10.3	17.4	17.3	13.3	14.1	14.1	4.45	16.4	4.47
Nc1n[nH]c2ccc([C@@H]3Nc4cc5[nH]ncc5cc4[C@H]4C5CCC(C5)[C@@H]34)cc12 (some centres not stated)	> 82.9	19.1	> 100	> 78.4	> 40.6	98.1	> 100	> 46.2	> 80.9	> 100	0.525	0.393	0.584	14.9	0.424	0.764	0.391	4.59	0.565	0.315
COc1cccc(CC(C)=C(c2ccc(OCCCN(C)C)cc2)c2ccc(OCCCN(C)C)cc2)c1	1.22	1.54	1.44	1.09	0.868	0.869	1.82	3.79	2.06	1.16	0.533	0.628	0.557	0.498	0.432	0.457	0.694	0.747	0.707	0.484
CC/C=C\C/C=C/C=C1/C(=O)C=C[C@@H]1C/C=C\CCCC(=O)OC	7.79	6.59	52.6	11.4	5.23	11.3	17.4	8.49	11.1	20.9	2.7	2.24	5.71	3.27	2.14	3.55	4.55	3.07	3.32	1.38
Cn1nnc2c(C(N)=O)ncn2c1=O	> 100	> 100	> 100	> 100	> 100	> 100	> 100	> 100	> 100	> 100										
O=C(NN1C(=O)CSC1c1ccc(F)cc1)C(O)c1ccccc1 (configuration not stated)	> 100	> 100	> 100	> 100	> 100	> 100	> 100	> 100	> 100	> 100	> 100	> 100	90.9	> 100	> 100	67.6	> 100	> 100	> 100	43.3
O/N=C1\CCc2nonc2\C1=N/Nc1ccccc1	> 100	> 100	> 100	> 100	> 100	> 100	> 100	> 100	> 100	> 100										
NNc1c2ccccc2nc2ccccc12	56.7	27.8	> 100	36.2	18.3	48.6	> 100	43.6	54.1	64.7	6.44	4.55	5.29	4.06	4.63	10.7	10.9	5.19	15.8	3.32
Cc1cccc2c(Nc3ccc(NS(C)(=O)=O)cc3)c3ccc([N+](=O)[O-])cc3nc12	7.58	2.97	3.24	4.6	3.79	5.42	4.4	2.47	21.1	14	0.486	0.694	0.128	1.53	1.03	2.05	0.253	0.345	3.95	2.04
Nc1n[nH]c(N)c1N=Nc1ccc(O)cc1	> 100	74.1	> 100	85.1	54.2	82.8	62.5	67.8	> 100	> 100	23.3	17.2	22.5	24.4	18.9	16.8	17	18.2	23.5	9.17
NCCC(=O)NC(Cc1cnc[nH]1)C(=O)O (configuration not stated)	> 100	> 100	> 100	> 100	> 100	> 100	> 100	> 100	> 100	> 100										
Cc1ccc(N=C2SC(c3ccc(C)cc3)(c3ccc(C)cc3)c3ccccc32)cc1	> 100	> 100	> 100	> 100	> 100	> 100	> 100	> 100	> 100	> 100										
CCN(CC)CCCC(C)Nc1c(-c2ccccc2)cnc2cc(Cl)ccc12 (configuration not stated)	36.5	16	40.7	6.28	3.23	13.2	31.3	23.7	27	32	8.9	4.19	8.2	2.46	1.6	3.5	13	4.65	10.5	3.2
Cc1cc(NC(=O)c2cnc(N3CCN(CCOCCOCCOCCOCCC(=O)N[C@H](C(=O)N4C[C@H](O)C[C@H]4C(=O)N[C@@H](C)c4ccc(-c5scnc5C)cc4)C(C)(C)C)CC3)cn2)c2ncccc2c1	7.64		> 100	7.97	> 100	3.98	> 100	9.37	50.8	> 100	2.52		6.19	2.81	5.11	1.98	6.16	2.3	14.9	3.1
